Tests used:
[1] = tested on: NCTC2472 fibrosarcoma or MDA-MB231 breast cancer cells injected into bone; assay: Spontaneous paw lifting behaviour (pain) in bone cancer model; assay type: in vivo, mice; conditions: day 14 post tumor cell inoculation; dosed at MTD by oral gavage once daily; 4 minutes observation; vehicle 80%
Description: Male C3H/HeNCrl mice for the NCTC2472 mouse fibrosarcoma cells (20-25 g, Charles River, Sulzfeld, Germany) or female NMRI Nude mice for the MDA MB 231 human breast cancer cells (Janvier, France) were used. Induction of bone cancer was carried out as previously described (Schwei et al., 1999^1). Induction of general anaesthesia was performed under 4% isoflurane in a mixture of 30% O2 and 70% air (1000 ml/ min). Anaesthesia was then maintained at 2.5% isoflurane for the duration of the surgical procedure. The left hind paw was shaved and disinfected with povidone-iodine followed by 70% ethanol. A superficial 1 cm incision was made over the knee overlaying the patella. The patella ligament was cut, exposing the condyles of the distal femur. A 23-gauge needle was inserted at the level of the intercondylar notch and the intramedullary canal of the femur to create a cavity for injection of the cells. Tumour cells (2.5×10^6 cells/20 μl) were then injected into the bone cavity using a 0.3 ml syringe. To prevent leakage of cells outside the bone, the injection site was sealed with dental acrylic (Paladur, Heraeus Kulzer, GmbH, Wehrheim, Germany) and the wound closed with skin stitches. For the sham-operated group, an identical procedure was followed except that medium without cells was injected. […]

[2] = tested on: NCTC2472 fibrosarcoma or MDA-MB231 breast cancer cells injected into bone; assay: Evaluation of bone destruction by μCT of ipsilateral left hind limbs; assay type: in vivo, mice; conditions: tumor inoculated animals, dosed at MTD; compared with vehicle and sham
Description: (§1) Male C3H/HeNCrl mice for the NCTC2472 mouse fibrosarcoma cells (20-25 g, Charles River, Sulzfeld, Germany) or female NMRI Nude mice for the MDA MB 231 human breast cancer cells (Janvier, France) were used. Induction of bone cancer was carried out as previously described (Schwei et al., 1999^1). Induction of general anaesthesia was performed under 4% isoflurane in a mixture of 30% O2 and 70% air (1000 ml/ min). Anaesthesia was then maintained at 2.5% isoflurane for the duration of the surgical procedure. The left hind paw was shaved and disinfected with povidone-iodine followed by 70% ethanol. A superficial 1 cm incision was made over the knee overlaying the patella. The patella ligament was cut, exposing the condyles of the distal femur. A 23-gauge needle was inserted at the level of the intercondylar notch and the intramedullary canal of the femur to create a cavity for injection of the cells. Tumour cells (2.5×10^6 cells/20 μl) were then injected into the bone cavity using a 0.3 ml syringe. To prevent leakage of cells outside the bone, the injection site was sealed with dental acrylic (Paladur, Heraeus Kulzer, GmbH, Wehrheim, Germany) and the wound closed with skin stitches. For the sham-operated group, an identical procedure was followed except that medium without cells was injected.

[3] = tested on: MDA B231 bone homing clone cells; assay: Bone cancer metastasis model, histological sections after 42 days; assay type: in vivo, mice; conditions: po, qd
Description: as §1
In the bone cancer metastasis model MDA B231 bone homing clone cells were inoculated into the tibia as described. After 42 days, animals were sacrificed and the amputated paws placed in fixative. The legs were de-calcified and sections cut to determine levels of bone destruction.

[4] = Tissue distribution profile; assay type: in vivo
[5] = oral gavage, once daily

SMILES	percentage of the time the left hind paw was raised (spontaneous paw lifting) [1]	osteolytic bone destruction (μCt reconstructions, FIG. 2) [2]	detectable tumor in histological sections (FIG. 3) ([3]; 100 mg per kg)	signs of tumor cells and bone destruction ([3]; 100 mg per kg)	amount of tumor growth and amount of bone destruction ([3]; dose dependence)	tissue distribution to bone marrow ([4]; in vivo)	blood brain barrier penetration ([4]; intact blood brain barrier)	maximum tolerated dose (MTD) [5]
COc1cc2ncnc3c2cc1OCCCCCN(C)Cc1ccc(Br)cc1N3 [Compound 1, 4,6-ethanediylidenepyrimido[4,5-b][6,1,12]benzoxadiazacyclo-pentadecine, 17-bromo-8,9,10,11,12,13,14,19-octahydro-20-methoxy-13-methyl]	~8%	significantly less bone destruction	detectable tumor is hardly present	no signs of tumor cell not any signs bone destruction	dose dependently reduced	preferential tissue distribution to the bone marrow compartment	ability to cross the intact blood brain barrier	200 mg per kg
COc1cc2ncnc(Nc3ccc(F)c(Cl)c3)c2cc1OCCCN1CCOCC1 [Iressa, reference compound]	more than 35%	Considerable bone loss	–	–	–	–	–	50 mg per kg
